Here are results for six compounds from article PMC9145193 (Molecules, 2022).

Where “and” joins values, the source holds several entries; their conditions need not be identical. Identical values can stand only once. Like-named read-outs stand apart in the source and are kept apart here.

In one data set the target is T1, Aβ (Homo sapiens, UniProt P05067).
T1 construct: Aggregation of β-amyloid peptide (Aβ) is one of the main histopathological hallmarks of AD; purchased Beyotime P9001
As to the kind of experiment: Self-induced Aβ aggregation inhibition by thioflavin T assay. The class given is biochemical. Particulars: read-out: Aβ Aggregation Inhibition (%). The protocol: Aggregation of β-amyloid peptide (Aβ) is one of the main histopathological hallmarks of AD [34].
A total of 1mg Aβ (P9001, Beyotime, Shanghai, China) was dissolved in 1 mL of hexafluoroisopropanol and aliquoted into 50 μL per tube. Then, 20 μL of DMSO was added into one tube of Aβ solution. The test compound was prepared as a 10 mM of stock solution with DMSO and diluted to 50 μM with PBS (including the control). Then, 20 μL of the test compound and 20 μL of the Aβ solution were added to a 96-well black plate, which was gently tapped to mix the solution, covered tightly and sealed with black tape to prevent evaporation of the solvent, and left in the dark at room temperature for 24 h. Then. 160 μL of THT solution at a concentration of 5 μM was added and the fluorescence absorption was measured at an excitation wavelength of 445 nm and an emission wavelength of 490 nm. The software GraphPad Prism 8.0 was used to analyze the data.

Data set [1] addresses T2, AChE enzyme from electrophorus electricus (eeAChE) (Electrophorus electricus, UniProt O42275).
T2 construct: purchased Merck C3389
As to the kind of experiment: biochemical. The conditions noted are these: mean ± SEM from three independent experiments. The protocol: Donepezil was used as a positive control.
AChE activity was measured by the […] using AChE enzyme from electrophorus electricus (eeAChE) (C3389, Merck, Kenilworth, NJ, USA). AChE solution (2 U/mL) was prepared with 0.1 M phosphate buffer (pH 8.0) firstly. Varied concentrations of test compounds (20 μL), 1 mM 5′-dithiobis (2-nitrobenzoic acid) (DTNB) solution (100 μL), and AChE solution (40 μL) were added in order to each well of a 96-well plate. After incubation for 15 min at 37 °C, the reaction was initiated by adding 20 μL of acetylthiocholine iodide (1 mM) to the mixed solution. The absorbance of each plate was instantly measured at 405 nm using a microplate reader. The inhibition of each compound was estimated using the formula (1−Ai/Ac) × 100, where Ai and Ac represent the absorbance of AChE in the presence and absence of inhibitors, respectively. Each experiment was replicated three times. Plotting curves of log concentration via percentage of inhibition, the IC50 values of all tested compounds were graphically analyzed (Graph Pad Prism 8.0).

The target in another data set is T3, AChE (Electrophorus electricus, UniProt O42275).
T3 construct: purchased Merck C3389
T3 sequence (O42275 24-633): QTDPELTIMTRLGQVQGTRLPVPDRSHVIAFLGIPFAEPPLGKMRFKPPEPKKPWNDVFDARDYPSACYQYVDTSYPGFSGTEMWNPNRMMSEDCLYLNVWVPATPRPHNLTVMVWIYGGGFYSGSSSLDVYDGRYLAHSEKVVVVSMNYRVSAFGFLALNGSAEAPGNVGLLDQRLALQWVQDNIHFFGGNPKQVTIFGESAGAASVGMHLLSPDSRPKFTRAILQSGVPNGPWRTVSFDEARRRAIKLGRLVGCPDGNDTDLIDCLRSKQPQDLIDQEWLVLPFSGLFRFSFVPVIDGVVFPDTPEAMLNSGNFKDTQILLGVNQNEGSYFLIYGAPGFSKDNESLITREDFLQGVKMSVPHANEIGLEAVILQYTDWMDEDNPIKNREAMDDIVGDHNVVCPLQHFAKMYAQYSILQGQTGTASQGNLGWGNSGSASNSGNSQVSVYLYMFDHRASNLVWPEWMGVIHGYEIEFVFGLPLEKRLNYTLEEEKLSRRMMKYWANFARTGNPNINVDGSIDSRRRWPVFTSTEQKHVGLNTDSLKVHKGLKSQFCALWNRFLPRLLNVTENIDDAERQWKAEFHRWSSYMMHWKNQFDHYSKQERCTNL
As to the kind of experiment: Kinetic study of AChE inhibition (Lineweaver-Burk). The class given is biochemical. The conditions noted are these: 10a at 0, 0.8 and 1.6 nM. Here is the method:
The mechanistic inhibition study of compound 10a on the AChE was carried out through kinetic parameters such as maximal velocity (Vmax), inhibitory concentration (Ki) and Michalis–Menten dissociation constant (Km).
Kinetic study of AChE inhibition was carried out using Ellman’s method, which is the same as the AChE assay, to determine the kinetic mechanism of chemical inhibition. The kinetic inhibition of compound 10a was analyzed at concentrations of 0.8 and 1.6nM. Lineweaver–Burk reciprocal plots were created by graphing 1/velocity vs. 1/[substrate] at various concentrations of substrate acetylthiocholine. The software GraphPad Prism 8.0 was used to analyze the data.

The subject of the next data set is SH-SY5Y cells. The data set can be described thus: Cytotoxicity assay on SH-SY5Y cells (MTT). The class given is cell-based. The conditions noted are these: 10, 25 and 50 μM, 24 h. The protocol: To evaluate the cytotoxicity of these new compounds, cell viability was tested on SH-SY5Y cells.
SH-SY5Y cells were grown in a 25 cm^2 culture flask in fresh MEM/F12 medium, supplemented with 10% fetal bovine serum, 100 U/mL penicillin, and 100 µg/mL streptomycin, and incubated at 37 °C with 5% CO2. Cells were seeded at a density of 1 × 10^4 cells per well in a 96-well plate. After incubation for 24 h, medium was removed. […] After 24 h treatment, 10 μL of 3-(4,5-dimethyl-2-thiazolyl)-2,5-diphenyl-2-H-tetrazolium bromide was added into each well. After 4 h of incubation at 37 °C, 100 μL of DMSO was added to dissolve the formazan crystals, and the mixture’s absorbance was measured at 490 nm under a microplate reader (FC/K3, Thermo, Waltham, MA, USA). The survival rate was estimated using the formula Ae/Ab × 100%, where Ae and Ab represent the absorbance of SH-SY5Y cells in the presence and absence of the tested drugs, respectively. Each experiment was replicated three times.

The nature of data set [2]: DPPH free radical scavenging assay. The conditions noted are these: 50 μM, mean ± SEM. The protocol:
DPPH assay was used to evaluate the free radical scavenging ability of the representative compound 10a, while Trolox was used as a control.
Compound 10a was tested for free radical-scavenging activity using 1,1-diphenyl-2-picryl-hydrazyl (DPPH) (D9132, Merck, Kenilworth, NJ, USA). To make a 0.1 mM concentration of DPPH stock solution, DPPH was dissolved in methanol. […] Trolox was used as a reference. The absorbance was measured at 545 nm after 30 min of reaction at 25 °C.

T2 sequence (O42275 24-633): as above
T1 sequence (P05067 672-713): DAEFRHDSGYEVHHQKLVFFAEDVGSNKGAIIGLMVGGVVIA

As a reminder, the inhibition is the percentage by which the read-out fell short of the control. One may read the IC50 as the concentration that inhibits the measured activity by half. A high value points to weaker potency. Consider `COc1cc2c(cc1OC)C(=O)/C(=C/c1cc[n+](Cc3ccccc3)cc1C(C)=O)OC2.[Br-]` [10a, (Z)-3-Acetyl-1-benzyl-4-((6,7-dimethoxy-4-oxoisochroman-3-ylidene)methyl)pyridin-1-ium bromide], for which the inhibition at 25 µM on Aβ is 57 ± 2.68%. The same compound had an IC50 in data set [1] of 1.61 ± 0.02 nM. Moreover, the “Type of AChE inhibition (Lineweaver-Burk plot)” value on AChE is reported as “mixed-type inhibitor”. In the data set with SH-SY5Y cells, the “Cell viability on SH-SY5Y cells” value is “did not significantly alter cell viability”. Further, the “Reduced DPPH (%)” value in data set [2] was 31.89% and 31.89 ± 3.23%.

As to `COc1cc2c(cc1OC)C(=O)/C(=C/c1cc[n+](Cc3ccccc3F)cc1C(N)=O)OC2.[Br-]` [13b, (Z)-3-Carbamoyl-4-((6,7-dimethoxy-4-oxoisochroman-3-ylidene)methyl)-1-(2-fluorobenzyl)pyridin-1-ium Bromide], in data set [1], the IC50 came out at 3.54 ± 0.05 nM. Further, the “Cell viability on SH-SY5Y cells” value in the data set on SH-SY5Y cells is on record as “did not significantly alter cell viability”.

Turning to `COc1cc2c(cc1OC)C(=O)/C(=C/c1cc[n+](Cc3cccc(C(F)(F)F)c3)cc1C(N)=O)OC2` [13o, (Z)-3-Carbamoyl-4-((6,7-dimethoxy-4-oxoisochroman-3-ylidene)methyl)-1-(3-(trifluoromethyl)benzyl)pyridin-1-ium Bromide], the IC50 in data set [1] amounted to 43 ± 0.44 nM.

Compound `COc1cc2c(cc1OC)C(=O)/C(=C/c1cc[n+](Cc3ccc(C(F)(F)F)cc3)cc1C(N)=O)OC2` [13p, (Z)-3-Carbamoyl-4-((6,7-dimethoxy-4-oxoisochroman-3-ylidene)methyl)-1-(4-(trifluoromethyl)benzyl)pyridin-1-ium Bromide] registered an IC50 in data set [1] of 441 ± 7.82 nM.

Regarding `Oc1ccc(/C=C/c2cc(O)cc(O)c2)cc1` [Resveratrol, reference compound], the inhibition at 25 µM at Aβ (25 μM, self-induced, thioflavin T, mean ± SEM) was 83.3 ± 5.23%.

For `Cc1c(C)c2c(c(C)c1O)CCC(C)(C(=O)O)O2` (centres unmarked) [Trolox, reference compound], the “Reduced DPPH (%)” value in data set [2] turned out to be 72.41 ± 4.23%.
